# Results reported in patent US20200017495A1, “NOVEL HETEROCYCLIC COMPOUNDS AND THEIR USE IN PREVENTING OR TREATING BACTERIAL INFECTIONS” (priority 2017, published 2020).
# Where two headings read alike, the source gives them in different places.
# Tests used:
# Format in all cases: cell-based
# [1] = tested on: Proteus mirabilis (PMI) isolates; test: microbe, parasite or virus in culture
# Description: (§1) Method 2: MIC of Compounds Alone and Combined with Antibacterials Against Bacterial Isolates
# Compounds of the present invention were assessed against genotyped bacterial strains (Table 3, 4) alone or in combination with an antibacterial (Table 2). […] Log phase bacterial suspensions were adjusted to a final density of 5.10^5 CFU/mL in cation-adjusted Mueller-Hinton broth (ca-MHB; Becton-Dickinson and Company) and added to each well (98 μL). Microplates were incubated for 16-20 h at 35° C. in ambient air. The MIC of the compounds was defined as the lowest concentration of said compounds that prevented bacterial growth as read by visual inspection. The MIC of ATB at each compound concentration was defined as the lowest concentration of ATB that prevented bacterial growth as read by visual inspection.
# [2] = tested on: Providencia stuartii (PST) isolates; test: MIC of compounds alone and combined with antibacterials, broth microdilution (CLSI)
# Description: as §1
# (§2) Compounds of the present invention were assessed against genotyped bacterial strains (Table 3, 4) alone or in combination with an antibacterial (Table 2). […]. Briefly, compounds alone according to the invention were prepared in DMSO and spotted (2 μL each) on sterile polystyrene plates (Corning, 3788). Combinations of compounds and antibiotics dilutions were prepared in DMSO and spotted (1 μL each) on sterile polystyrene plates (Corning, 3788). Log phase bacterial suspensions were adjusted to a final density of 5.10^5 CFU/mL in cation-adjusted Mueller-Hinton broth (ca-MHB; Becton-Dickinson and Company) and added to each well (98 μL). Microplates were incubated for 16-20 h at 35° C. in ambient air. The MIC of the compounds was defined as the lowest concentration of said compounds that prevented bacterial growth as read by visual inspection. The MIC of ATB at each compound concentration was defined as the lowest concentration of ATB that prevented bacterial growth as read by visual inspection.
# [3] = tested on: Salmonella typhimurium (STY) isolates; test: as above; conditions: for MIC ATB in combination: STY S3371
# Description: as §1, §2
# [4] = strain PMI UFR82, genotype CMY-2
# [5] = strain PMI UFR120, genotype TEM-1, SHV-11, CTX-M-14
# [6] = strain PMI UFR121, genotype TEM-1, TEM-52
# [7] = strain PMI UFR122, genotype TEM-1, CTX-M-15
# [8] = strain PMI UFR123, genotype CTX-M-1
# [9] = strain PMI UFR124, genotype CTX-M-2
# [10] = strain PMI UFR125, genotype CTX-M-71
# [11] = strain PMI UFR126, genotype TEM-2, PER-1
# [12] = strain PMI UFR127, genotype VEB-1
# [13] = strain PMI UFR129, genotype TEM-1, VEB-6
# [14] = strain PMI UFR130, genotype CMY-2
# [15] = strain PMI UFR237, genotype VEB-6
# [16] = strain PST UFR94, genotype CTX-M-14
# [17] = strain PST UFR95, genotype TEM-24
# [18] = strain PST UFR235, genotype VEB-1
# [19] = strain STY S3371, genotype OXA-1
# [20] = Proteus mirabilis, strain PMI UFR82, genotype CMY-2, read-out: MIC
# [21] = Proteus mirabilis, strain PMI UFR122, genotype TEM-1, CTX-M-15, read-out: MIC
# [22] = Proteus mirabilis, strain PMI UFR130, genotype CMY-2, read-out: MIC
# [23] = Providencia stuartii, strain PST UFR94, genotype CTX-M-14, read-out: MIC
# [24] = Providencia stuartii, strain PST UFR95, genotype TEM-24, read-out: MIC
# [25] = Providencia stuartii, strain PST UFR235, genotype VEB-1, read-out: MIC
# [26] = Salmonella enterica, TYPHIMURIUM
compound,measurement,setting,value
"CO/N=C(\C(=O)N[C@@H]1C(=O)N2C(C(=O)O)=C(COC(N)=O)CS[C@H]12)c1ccco1 [FUR, Cefuroxime]",MIC,[1]; [4],16 µg/mL
same,MIC,[1]; [5],>256 µg/mL
same,MIC,[1]; [6],>256 µg/mL
same,MIC,[1]; [7],>256 µg/mL
same,MIC,[1]; [8],>256 µg/mL
same,MIC,[1]; [9],>256 µg/mL
same,MIC,[1]; [10],>256 µg/mL
same,MIC,[1]; [11],>256 µg/mL
same,MIC,[1]; [12],>256 µg/mL
same,MIC,[1]; [13],>256 µg/mL
same,MIC,[1]; [14],8 µg/mL
same,MIC,[1]; [15],>256 µg/mL
same,MIC,[2]; [16],>256 µg/mL
same,MIC,[2]; [17],128 µg/mL
same,MIC,[2]; [18],256 µg/mL
same,MIC,[3]; [19],32 µg/mL
"CC(C)(O/N=C(\C(=O)N[C@@H]1C(=O)N2C(C(=O)[O-])=C(C[n+]3ccccc3)CS[C@H]12)c1csc(N)n1)C(=O)O [CAZ, Ceftazidime]",MIC ATB in combination,"[1]; PMI UFR82, AF2 @ 8 μg/mL",<0.25 µg/mL
same,MIC ATB in combination,"[1]; PMI UFR82, AF3 @ 8 μg/mL",<0.25 µg/mL
same,MIC ATB in combination,"[1]; PMI UFR126, AF2 @ 8 μg/mL",<0.25 µg/mL
same,MIC ATB in combination,"[1]; PMI UFR126, AF3 @ 8 μg/mL",<0.25 µg/mL
same,MIC ATB in combination,"[1]; PMI UFR127, AF2 @ 8 μg/mL",<0.25 µg/mL
same,MIC ATB in combination,"[1]; PMI UFR127, AF3 @ 8 μg/mL",<0.25 µg/mL
same,MIC ATB in combination,"[1]; PMI UFR128, AF2 @ 8 μg/mL",<0.25 µg/mL
same,MIC ATB in combination,"[1]; PMI UFR128, AF3 @ 8 μg/mL",<0.25 µg/mL
same,MIC ATB in combination,"[1]; PMI UFR129, AF2 @ 8 μg/mL",<0.25 µg/mL
same,MIC ATB in combination,"[1]; PMI UFR129, AF3 @ 8 μg/mL",<0.25 µg/mL
same,MIC ATB in combination,"[1]; PMI UFR130, AF2 @ 8 μg/mL",<0.25 µg/mL
same,MIC ATB in combination,"[1]; PMI UFR130, AF3 @ 8 μg/mL",<0.25 µg/mL
same,MIC ATB in combination,"[1]; PMI UFR133, AF2 @ 8 μg/mL",<0.25 µg/mL
same,MIC ATB in combination,"[1]; PMI UFR133, AF3 @ 8 μg/mL",<0.25 µg/mL
same,MIC ATB in combination,"[1]; PMI UFR237, AF2 @ 8 μg/mL",<0.25 µg/mL
same,MIC ATB in combination,"[1]; PMI UFR237, AF3 @ 8 μg/mL",<0.25 µg/mL
same,MIC,[1]; [4],4 µg/mL
same,MIC,[1]; [5],<=0.25 μg/mL
same,MIC,[1]; [6],16 µg/mL
same,MIC,[1]; [7],1 µg/mL
same,MIC,[1]; [8],2 µg/mL
same,MIC,[1]; [9],2 µg/mL
same,MIC,[1]; [10],2 µg/mL
same,MIC,[1]; [11],>128 µg/mL
same,MIC,[1]; [12],>128 µg/mL
same,MIC,"[1]; strain PMI UFR128, genotype VEB-1, OXA-10",>128 µg/mL
same,MIC,[1]; [13],>128 µg/mL
same,MIC,[1]; [14],4 µg/mL
same,MIC,"[1]; strain PMI UFR131, genotype CMY-16, OXA-1, OXA-10, NDM-1, ArmA",>128 µg/mL
same,MIC ATB in combination,"[1]; strain PMI UFR131, with AF2 @ 8 μg/mL",<0.25 µg/mL
same,MIC ATB in combination,"[1]; strain PMI UFR131, with AF3 @ 8 μg/mL",<0.25 µg/mL
same,MIC,"[1]; strain PMI UFR132, genotype VEB-6, DHA-1, NDM-1, AphA6, AacA4",>128 µg/mL
same,MIC ATB in combination,"[1]; strain PMI UFR132, with AF2 @ 8 μg/mL",<0.25 µg/mL
same,MIC ATB in combination,"[1]; strain PMI UFR132, with AF3 @ 8 μg/mL",<0.25 µg/mL
same,MIC,"[1]; strain PMI UFR133, genotype OXA-23",<=0.25 μg/mL
same,MIC,[1]; [15],>128 µg/mL
same,MIC ATB in combination,"[2]; PST UFR94, AF2 @ 8 μg/mL",<=0.25 μg/mL
same,MIC ATB in combination,"[2]; PST UFR94, AF3 @ 8 μg/mL",<=0.25 μg/mL
same,MIC ATB in combination,"[2]; PST UFR95, AF2 @ 8 μg/mL",<=0.25 μg/mL
same,MIC ATB in combination,"[2]; PST UFR95, AF3 @ 8 μg/mL",<=0.25 μg/mL
same,MIC ATB in combination,"[2]; PST UFR120, AF2 @ 8 μg/mL",<0.25 µg/mL
same,MIC ATB in combination,"[2]; PST UFR120, AF3 @ 8 μg/mL",<0.25 µg/mL
same,MIC ATB in combination,"[2]; PST UFR121, AF2 @ 8 μg/mL",<0.25 µg/mL
same,MIC ATB in combination,"[2]; PST UFR121, AF3 @ 8 μg/mL",<0.25 µg/mL
same,MIC ATB in combination,"[2]; PST UFR122, AF2 @ 8 μg/mL",<0.25 µg/mL
same,MIC ATB in combination,"[2]; PST UFR122, AF3 @ 8 μg/mL",<0.25 µg/mL
same,MIC ATB in combination,"[2]; PST UFR123, AF2 @ 8 μg/mL",<=0.25 μg/mL
same,MIC ATB in combination,"[2]; PST UFR123, AF3 @ 8 μg/mL",<0.25 µg/mL
same,MIC ATB in combination,"[2]; PST UFR124, AF2 @ 8 μg/mL",<=0.25 μg/mL
same,MIC ATB in combination,"[2]; PST UFR124, AF3 @ 8 μg/mL",<0.25 µg/mL
same,MIC ATB in combination,"[2]; PST UFR125, AF2 @ 8 μg/mL",<=0.25 μg/mL
same,MIC ATB in combination,"[2]; PST UFR125, AF3 @ 8 μg/mL",<0.25 µg/mL
same,MIC ATB in combination,"[2]; PST UFR235, AF2 @ 8 μg/mL",<=0.25 μg/mL
same,MIC ATB in combination,"[2]; PST UFR235, AF3 @ 8 μg/mL",<=0.25 μg/mL
same,MIC,[2]; [16],1 µg/mL
same,MIC,[2]; [17],64 µg/mL
same,MIC,"[2]; strain PST UFR98, genotype TEM-1, CMY-6, OXA-1, NDM-1, RmtC",>256 µg/mL
same,MIC ATB in combination,"[2]; strain PST UFR98, with AF2 @ 8 μg/mL",>128 µg/mL
same,MIC ATB in combination,"[2]; strain PST UFR98, with AF3 @ 8 μg/mL",<0.25 µg/mL
same,MIC,[2]; [18],>128 µg/mL
same,MIC ATB in combination,[3]; AF2 @ 8 μg/mL,<0.25 µg/mL
same,MIC ATB in combination,[3]; AF3 @ 8 μg/mL,<0.25 µg/mL
same,MIC,[3]; [19],0.5 µg/mL
"C=CC1=C(C(=O)O)N2C(=O)[C@@H](NC(=O)/C(=N\O)c3csc(N)n3)[C@H]2SC1 [CDR, Cefdinir]",MIC,[1]; [20],16 µg/mL
same,MIC,"[1]; Proteus mirabilis, strain PMI UFR120, genotype TEM-1, SHV-11, CTX-M-14, read-out: MIC",64 µg/mL
same,MIC,"[1]; Proteus mirabilis, strain PMI UFR121, genotype TEM-1, TEM-52",> 256 µg/mL
same,MIC,[1]; [21],16 µg/mL
same,MIC,"[1]; Proteus mirabilis, strain PMI UFR123, genotype CTX-M-1",> 256 µg/mL
same,MIC,"[1]; Proteus mirabilis, strain PMI UFR124, genotype CTX-M-2",> 256 µg/mL
same,MIC,"[1]; Proteus mirabilis, strain PMI UFR125, genotype CTX-M-71, read-out: MIC",256 µg/mL
same,MIC,"[1]; Proteus mirabilis, strain PMI UFR126, genotype TEM-2, PER-1",> 256 µg/mL
same,MIC,"[1]; Proteus mirabilis, strain PMI UFR127, genotype VEB-1",> 256 µg/mL
same,MIC,"[1]; Proteus mirabilis, strain PMI UFR129, genotype TEM-1, VEB-6",> 256 µg/mL
same,MIC,[1]; [22],16 µg/mL
same,MIC,"[1]; Proteus mirabilis, strain PMI UFR237, genotype VEB-6",> 256 µg/mL
same,MIC,[2]; [23],64 µg/mL
same,MIC,[2]; [24],32 µg/mL
same,MIC,[2]; [25],256 µg/mL
same,MIC,[3]; [26],0.5 µg/mL
"COCC1=C(C(=O)O)N2C(=O)[C@@H](NC(=O)/C(=N\OC)c3csc(N)n3)[C@H]2SC1 [POD, Cefpodoxime]",MIC,[1]; [20],64 µg/mL
same,MIC,[1]; [21],64 µg/mL
same,MIC,"[1]; Proteus mirabilis, strain PMI UFR127, genotype VEB-1, read-out: MIC",128 µg/mL
same,MIC,[1]; [22],128 µg/mL
same,MIC,[2]; [23],32 µg/mL
same,MIC,[2]; [24],16 µg/mL
same,MIC,[2]; [25],128 µg/mL
same,MIC,[3]; [26],4 µg/mL
